In patent publication US8802663B2, “Pyrazole oxadiazole derivatives as S1P1 agonists” (Merck Serono SA, priority 2009, dated 2014):
Structures can show the parent of a compound that is named as a salt.

How the values were obtained:
S1P3 = S1P3 (Homo sapiens (Human), UniProt Q99500); test: 35S-GTPγS binding, membranes from CHO cells expressing S1P3; format: biochemical; details: CHO cell membranes
Procedure: (§1) Receptor binding assay: Membranes were prepared from CHO cells expressing S1P1 or S1P3 for use in ligand and […] binding studies. Cells were suspended in 50 mM TRIS, pH 7.4, 2 mM EDTA, 250 mM Sucrose (buffer A) and 1× Complete protease inhibitor cocktail (Roche), and disrupted at 4° C. by N2 decompression using a cell disruption bomb (Parr Instrument). Following centrifugation at 1000 RPM for 10 min at 4° C., the supernatant was suspended in buffer A and centrifuged again at 19000 RPM for 60 min at 4° C. The pellet was then suspended in 10 mM HEPES, pH 7.4, 1 mM EDTA, 250 mM Sucrose (Buffer B), and 1× Complete EDTA-free protease inhibitor cocktail and homogenized using a potter. Membranes were flash frozen in liquid N2 and stored at −80° C. [33P]sphingosine 1-phosphate (3000 Ci/mmol; American Radiolabeled Chemicals, Inc.) was added to test compounds in DMSO. Membranes and WGA SPA beads (GE Healthcare) were added to give a final volume of 100 μl in 96-well plates with assay concentrations of 25 pM or 10 pM [33P]sphingosine 1-phosphate (respectively for S1P1 or S1P3), 50 mM HEPES, pH 7.5, 5 mM MgCl2, 100 mM NaCl, 0.4% fatty acid-free BSA, 1-5 μg/well of proteins and 100 μg/well of WGA SPA beads. Binding was performed for 60 min at RT on a shaker and bound radioactivity was measured on a PerkinElmer 1450 MicroBeta counter. Specific binding was calculated by subtracting remaining radioactivity in the presence of 1000-fold excess of unlabeled SIP. Binding data were analyzed using the GraphPad Prism program.
Measurements of 35S-GTPγS Binding: Membranes (1 to 10 μg protein) prepared as described above, were incubated in 96-well Scintiplates (PerkinElmer) with test compounds diluted in DMSO, in 180 μl of 20 mM HEPES, pH 7.4, 10 mM MgCl2, 2 μg/well Saponin, 0.2% fatty acid free BSA (Assay buffer), 140 mM NaCl and 1.7 μM GDP. The assay was initiated with the addition of 20 μl of 1.5 nM [35S]-GTPγS (1100 Ci/mmol; GE Healthcare) in assay buffer. After 60 min incubation at 30° C. on a shaker, plates were centrifuged for 10 min at 2000 RPM. Supernatant was discarded and membrane bound radioactivity was measured on a PerkinElmer 1450 MicroBeta counter. Triplicate samples were averaged and expressed as % response relative to S1P activation in absence of compound (n=2).

S1P1 [1] = target: T1, S1P1 (Homo sapiens (Human), UniProt P21453); test: Receptor binding assay, [33P]sphingosine 1-phosphate, membranes from CHO cells expressing S1P1; details: CHO cell membranes, 25 pM [33P]sphingosine 1-phosphate
Procedure: as §1

S1P1 [2] = target: T1, S1P1; test: 35S-GTPγS binding, membranes from CHO cells expressing S1P1; format: biochemical; details: CHO cell membranes

T1 sequence (P21453 whole entry, species assumed): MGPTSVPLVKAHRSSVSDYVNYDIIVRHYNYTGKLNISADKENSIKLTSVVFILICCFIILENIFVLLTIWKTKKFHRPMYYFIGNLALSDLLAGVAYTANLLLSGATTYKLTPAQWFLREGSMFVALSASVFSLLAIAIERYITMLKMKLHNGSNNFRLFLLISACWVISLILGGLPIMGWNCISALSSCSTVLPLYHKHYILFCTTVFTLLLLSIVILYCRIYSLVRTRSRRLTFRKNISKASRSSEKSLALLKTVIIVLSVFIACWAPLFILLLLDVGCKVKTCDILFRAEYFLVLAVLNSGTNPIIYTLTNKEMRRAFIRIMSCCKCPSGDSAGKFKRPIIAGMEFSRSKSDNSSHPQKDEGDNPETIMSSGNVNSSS
Chain of S1P3 (Q99500 whole entry, species assumed): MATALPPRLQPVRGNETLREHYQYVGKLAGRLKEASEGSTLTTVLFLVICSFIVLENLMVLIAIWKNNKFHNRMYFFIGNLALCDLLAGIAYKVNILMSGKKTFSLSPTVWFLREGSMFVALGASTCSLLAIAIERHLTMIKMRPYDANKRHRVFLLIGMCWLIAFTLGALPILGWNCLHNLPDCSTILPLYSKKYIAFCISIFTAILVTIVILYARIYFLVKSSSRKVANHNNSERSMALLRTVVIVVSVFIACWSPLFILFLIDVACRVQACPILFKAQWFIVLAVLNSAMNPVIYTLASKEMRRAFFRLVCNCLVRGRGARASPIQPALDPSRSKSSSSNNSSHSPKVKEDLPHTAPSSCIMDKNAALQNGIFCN

Row | Compound | EC50 (S1P3) [nM] | Ki (S1P1 [1]) [nM] | EC50 (S1P1 [2]) [nM]
1 | COCc1c(-c2nc(-c3cc(F)ccc3F)no2)cnn1-c1ccccc1 [Example 1, 3-(2,5-difluorophenyl)-5-(5-(methoxymethyl)-1-phenyl-1H-pyrazol-4-yl)-1,2,4-oxadiazole] | > 20000 | 272 | 304
2 | COCCc1c(-c2nc(-c3ccc(CN4CC(C(=O)O)C4)cc3)no2)cnn1C1CCCCC1 [Example 120, 1-(4-(5-(1-cyclohexyl-5-(2-methoxyethyl)-1H-pyrazol-4-yl)-1,2,4-oxadiazol-3-yl)benzyl)azetidine-3-carboxylic acid] | 489 | 0.1 | 0.5
3 | O=C(O)C1CCN(Cc2ccc(-c3noc(-c4cnn(C5CCCCC5)c4C4CCCO4)n3)cc2)CC1 (stereo not shown) [Example 125, 1-(4-(5-(1-cyclohexyl-5-(tetrahydrofuran-2-yl)-1H-pyrazol-4-yl)-1,2,4-oxadiazol-3-yl)benzyl)piperidine-4-carboxylic acid] | 427 | 0.6 | 1.9
4 | Fc1ccc(F)c(-c2noc(-c3cnn(C4CCCCC4)c3-c3ccccc3)n2)c1 [Example 11] | 142 | 9 | 6
5 | CC(C)Cn1ncc(-c2nc(-c3ccc(CN4CC(C(=O)O)C4)cc3)no2)c1C1CCOCC1 [Example 96, 1-(4-(5-(1-isobutyl-5-(tetrahydro-2H-pyran-4-yl)-1H-pyrazol-4-yl)-1,2,4-oxadiazol-3-yl)benzyl)azetidine-3-carboxylic acid] | 2250 | 6.5 | 31
6 | O=C(O)C1CN(Cc2ccc(-c3noc(-c4cnn(C5CCCCC5)c4C4CCOCC4)n3)cc2)C1 [Example 97, 1-(4-(5-(1-cyclohexyl-5-(tetrahydro-2H-pyran-4-yl)-1H-pyrazol-4-yl)-1,2,4-oxadiazol-3-yl)benzyl)azetidine-3-carboxylic acid] | 138 | 0.7 | 1.4
7 | OCc1ccc(-c2noc(-c3cnn(C4CCCCC4)c3C3CCCO3)n2)cc1 (stereo not shown) [Example 117, (4-(5-(1-cyclohexyl-5-(tetrahydrofuran-2-yl)-1H-pyrazol-4-yl)-1,2,4-oxadiazol-3-yl)phenyl)methanol] | 622 | 2 | 11
8 | CC(C)Cn1ncc(-c2nc(-c3ccc(CNCCC(=O)O)cc3)no2)c1-c1ccncc1 [Example 89, 3-(4-(5-(1-isobutyl-5-(pyridin-4-yl)-1H-pyrazol-4-yl)-1,2,4-oxadiazol-3-yl)benzylamino)propanoic acid] | 1640 | – | 12
9 | c1cc(-c2c(-c3nc(-c4ccc5[nH]ncc5c4)no3)cnn2C2CCCCC2)ccn1 [Example 38, 5-[5-(1-cyclohexyl-5-pyridin-4-yl-1H-pyrazol-4-yl)-1,2,4-oxadiazol-3-yl]-1H-indazole] | 474 | 68 | 3
10 | O=C(O)C1CN(Cc2ccc(-c3noc(-c4cnn(C5CCCCC5)c4-c4ccncc4)n3)cc2)C1 [Example 42, 1-{4-[5-(1-cyclohexyl-5-pyridin-4-yl-1H-pyrazol-4-yl)-1,2,4-oxadiazol-3-yl]benzyl}azetidine-3-carboxylic acid] | 1020 | – | 1
11 | CS(=O)(=O)c1cccc(-c2noc(-c3cnn(-c4ccccc4F)c3-c3ccncc3)n2)c1 [Example 9, 4-(1-(2-fluorophenyl)-4-{3-[3-(methylsulfonyl)phenyl]-1,2,4-oxadiazol-5-yl}-1H-pyrazol-5-yl)pyridine] | > 20000 | 5 | 28
12 | CC(C)Cn1ncc(-c2nc(-c3cccc(C(F)(F)F)c3)no2)c1-c1ccncc1 [Example 37, 4-(1-isobutyl-4-{3-[3-(trifluoromethyl)phenyl]-1,2,4-oxadiazol-5-yl}-1H-pyrazol-5-yl)pyridine] | > 20000 | – | 9
13 | CC(C)Cn1ncc(-c2nc(-c3ccc(CN4CC(C(=O)O)C4)cc3)no2)c1-c1ccncc1 [Example 79, 1-(4-(5-(1-isobutyl-5-(pyridin-4-yl)-1H-pyrazol-4-yl)-1,2,4-oxadiazol-3-yl)benzyl)azetidine-3-carboxylic acid] | 1470 | 2.3 | 9.5
14 | CC1CCCCC1n1ncc(-c2nc(-c3cc(F)ccc3F)no2)c1-c1ccncc1 (stereo not shown) [Example 34, 4-[4-[3-(2,5-difluorophenyl)-1,2,4-oxadiazol-5-yl]-1-(2-methylcyclohexyl)-1H-pyrazol-5-yl]pyridine] | 1610 | – | 6
15 | O=C(O)C1CN(Cc2ccc(-c3noc(-c4cnn(CC5CC5)c4-c4ccncc4)n3)cc2)C1 [Example 101, 1-(4-(5-(1-(cyclopropylmethyl)-5-(pyridin-4-yl)-1H-pyrazol-4-yl)-1,2,4-oxadiazol-3-yl)benzyl)azetidine 3-carboxylic acid, formate] | 1620 | 1.8 | 12
16 | c1cc(-c2c(-c3nc(-c4ccc(Cn5cncn5)cc4)no3)cnn2C2CCCCC2)ccn1 [Example 91, 3-(4-((1H-1,2,4-triazol-1-yl)methyl)phenyl)-5-(1-cyclohexyl-5-(pyridin-4-yl)-1H-pyrazol-4-yl)-1,2,4-oxadiazole] | 147 | – | 8.5
17 | O=C(O)CCNCc1ccc(-c2noc(-c3cnn(C4CCCCC4)c3C3CCOCC3)n2)cc1 [Example 102, 3-(4-(5-(1-cyclohexyl-5-(tetrahydro-2H-pyran-4-yl)-1H-pyrazol-4-yl)-1,2,4-oxadiazol-3-yl)benzylamino)propanoic acid] | 214 | 0.8 | 2.1
